Laboratory results taken from PMC10287695, “Non-covalent inhibitors of thioredoxin glutathione reductase with schistosomicidal activity in vivo” (Nature Communications, 2023).
“And” between values parts separate entries of the source, which are not always exact repeats. Identical values can stand only once. Like-named read-outs stand apart in the source and are kept apart here.

Legend:
Human GR = biological target: T1, Human GR (Homo sapiens, UniProt P00390); assay: Human GR enzyme inhibition (GSSG reduction, NADPH oxidation); type: biochemical; details: for inhibition at 15 µM / inhibition at 66.7 µM / inhibition at 30 µM / inhibition at 5 µM: hGR; for inhibition at 15 µM: compound 15 µM; for inhibition at 15 µM / inhibition at 66.7 µM / inhibition at 30 µM: read-out: % inhibition; for inhibition at 66.7 µM: compound 66.7 µM; for inhibition at 30 µM: compound 30 µM; for inhibition at 5 µM: compound 5 µM
T1 construct: made in house
T1 sequence (P00390 44-522): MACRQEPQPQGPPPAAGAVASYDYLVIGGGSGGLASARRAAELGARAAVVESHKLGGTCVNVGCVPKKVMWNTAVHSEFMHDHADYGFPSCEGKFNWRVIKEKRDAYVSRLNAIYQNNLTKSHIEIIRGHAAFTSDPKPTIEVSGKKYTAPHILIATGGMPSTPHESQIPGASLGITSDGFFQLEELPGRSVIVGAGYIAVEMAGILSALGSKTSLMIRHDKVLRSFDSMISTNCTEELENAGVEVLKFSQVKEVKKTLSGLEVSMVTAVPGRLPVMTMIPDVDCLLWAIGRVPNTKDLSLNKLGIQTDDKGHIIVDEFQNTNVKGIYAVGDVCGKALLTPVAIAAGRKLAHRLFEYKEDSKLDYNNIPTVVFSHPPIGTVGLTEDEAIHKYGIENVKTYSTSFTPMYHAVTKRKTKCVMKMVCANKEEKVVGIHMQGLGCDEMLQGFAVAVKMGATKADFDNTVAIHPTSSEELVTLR

S. mansoni adult worms [1] = assay: GSH/GSSG ratio in ex vivo adult worms; type: cell-based; details: for Ratio GSH/GSSG: 0hr 72.45; for Decrease (%) in GSH/GSSG ratio: adult worms, 3 h exposure to compounds at 50 μM
Method: We assessed GSH/GSSG levels experimentally by treating S. mansoni adult worms with 50 µM of compounds, or respective controls 5 µM Auranofin, 50 µM PZQ or 50 µM MZM and 0.01% DMSO for 3 h. Worm homogenate was prepared by washing three times with PBS to remove residual compounds and ten volumes of ice cold 5% sulfosalicylic acid was added. Worms were manually homogenized on ice using VWR Pellet Mixer Adaptor. The worm suspension was centrifuged at 14000 × g, 4 °C for 10 min and the acid supernatants transferred. An equal volume of ice-cold neutralization buffer (500 mM HEPES, pH 8.0) was added to the acid supernatants.
GSH/GSSG assay was performed by diluting the acid supernatant (5-fold) with ice-cold dilution buffer (250 mM HEPES, pH 7.5). Using white opaque luminescence plate on ice, 25 µl of the diluted worm acid supernatant was added each well in triplicates. Total glutathione lysis reagent and GSSG lysis reagent, which contains alkylating agent N-ethylmaleimide (25 mM) were prepared following manufactures protocol and added to respective wells along with blank for background. Total glutathione lysis reagent or oxidized glutathione lysis reagent (25 µl) was added to respective wells containing worm acid supernatants and the plate was shaken for 5 min. Luciferin generation reagent (LGR) (50 µl) was added to all wells, briefly shaken and incubated at room temperature for 30 min. Luciferin detection reagent (LDR) (100 µl) was added to all wells, briefly shaken and incubated for 15 min at room temperature and the luminescence measured using microplate imager (BioTek Cytation3). GSH/GSSH ratio for DMSO control and compounds were calculated using (Net DMSO total glutathione RFU) – (Net DMSO GSSG RFU)/ (Net DMSO GSSG RFU)/2 and (Net inhibitor total glutathione RFU) – (Net inhibitor GSSG RFU)/ (Net inhibitor GSSG RFU)/2 respectively.

S. mansoni adult worms [2] = assay: Schistosomicidal activity ex vivo, adult worms (Cell Titer Glo), alone or with channel blockers; type: cell-based; details: for LD50 ex vivo S. mansoni adult: 24 h exposure
Method: Three-week old, female Swiss-Webster mice obtained from the Charles River were housed in the Comparative Research Center of Rush University Medical Center. Mice were infected by percutaneous tail exposure to about 200 S. mansoni or 50 S. japonicum cercaria for adult worms and about 1000 cercaria for juvenile S. mansoni worms through natural transdermal penetration of the cercariae for 1 h[81].
DMSO formulated compounds were diluted with phenol red free M199 medium or RPMI medium for NTS or juvenile and adult worms, respectively, at <1% DMSO final concentrations. NTS, juvenile and adult worms from overnight cultures were tested against compounds in triplicate. Controls were treated with DMSO alone or 5 µM AF as a positive control in appropriate medium. […] Schistosome viabilities in the presence of the compounds were assessed using this formula: % Viability = Averages of Test / Averages of DMSO Control x 100.

[3] = 1 hr, third data set (r147-159)
[4] = 1 hr, third data set (r147-159), 0hr = 100
[5] = 1 hr, third data set, (values given as fraction)
[6] = 3 hr, third data set (r147-159)
[7] = 3 hr, third data set (r147-159), 0hr = 100
[8] = 3 hr, third data set, (values given as fraction)
[9] = Schistosoma mansoni, S. mansoni adult worms, Conc. 5 µM, read-out: % viability
[10] = Schistosoma mansoni, S. mansoni adult worms, Conc. 30 µM, read-out: % viability
[11] = Schistosoma mansoni, S. mansoni adult worms, Conc. 50 µM, read-out: % viability
[12] = adult worms ex vivo, 1 hr, relative to 0hr
[13] = adult worms ex vivo, 1 hr, relative to 0hr, values given as fraction
[14] = adult worms ex vivo, 3 hr, relative to 0hr, values given as fraction
[15] = Schistosoma mansoni, 10 µM, compound alone, read-out: % viability, adult worms
[16] = Schistosoma mansoni, 30 µM, compound alone, read-out: % viability, adult worms
[17] = Schistosoma mansoni, S. mansoni adult worms, Conc. 10 µM, read-out: % viability

| Structure (SMILES) | Human GR (inhibition at 66.7 µM) (Human GR) | inhibition at 15 µM (Human GR; 15 minutes pre-incubation) [%] | inhibition at 66.7 µM (Human GR; 15 minutes pre-incubation) [%] | inhibition at 15 µM (Human GR; 6 hours pre-incubation) [%] | inhibition at 66.7 µM (Human GR; 6 hours pre-incubation) [%] | Reduction (%) in GSH/GSSG ratio (S. mansoni adult worms [1]; 1 hr, third data set) [%] | Ratio GSH/GSSG (S. mansoni adult worms [1]; [3]) | % Ratio GSH/GSSG (S. mansoni adult worms [1]; [4]) [%] | Reduction (%) in GSH/GSSG ratio (S. mansoni adult worms [1]; [5]) [%] | Reduction (%) in GSH/GSSG ratio (S. mansoni adult worms [1]; 3 hr, third data set) [%] | Ratio GSH/GSSG (S. mansoni adult worms [1]; [6]) | % Ratio GSH/GSSG (S. mansoni adult worms [1]; [7]) [%] | Reduction (%) in GSH/GSSG ratio (S. mansoni adult worms [1]; [8]) [%] | Decrease (%) in GSH/GSSG ratio (S. mansoni adult worms [1]) | LD50 ex vivo S. mansoni adult (S. mansoni adult worms [2]; compound alone) | viability at 5 µM (S. mansoni adult worms [2]; [9]) [%] | viability at 30 µM (S. mansoni adult worms [2]; [10]) [%] | viability at 50 µM (S. mansoni adult worms [2]; [11]) [%] | inhibition at 30 µM (Human GR; 15 minutes pre-incubation) [%] | inhibition at 30 µM (Human GR; 6 hours pre-incubation) [%] | also measured |
| --- | --- | --- | --- | --- | --- | --- | --- | --- | --- | --- | --- | --- | --- | --- | --- | --- | --- | --- | --- | --- | --- |
| C#CCN(Cc1nc(-c2ccccc2)oc1C)[C@@H]1C[C@@H]2C[C@H]([C@H]1C)C2(C)C [Compound 6] | n.i. | -0.749 | -0.295 | -0.648 | -0.21 | 3.259 | 70.09 | 96.7414 | 0.0326 | 8.6517 | 66.18 | 91.3483 | 0.09 | 32% | 15.7 ± 0.64 µM | 88.5 | 42 | 23.3 | – | – | viability at 15 µM (S. mansoni adult worms [2]; Schistosoma mansoni, S. mansoni adult worms, Conc. 15 µM, read-out: % viability): 50.6% |
| Cc1oc(C2CCCCC2)nc1C(=O)N[C@@H]1C[C@@H]2C[C@H]([C@H]1C)C2(C)C [Compound 7] | n.i. | -0.669 | -1.12 | -0.918 | -0.656 | – | – | – | – | – | – | – | – | 38% and 36.9% | 32.6 ± 0.26 µM | 99.8 | 59 | – | -0.696 | -2.19 | % Ratio GSH/GSSG (S. mansoni adult worms [1]; adult worms ex vivo, 1 hr): 52.5902%; Reduction (%) in GSH/GSSG ratio (S. mansoni adult worms [1]; [12]): 13.6142%; Reduction (%) in GSH/GSSG ratio (S. mansoni adult worms [1]; [13]): 0.1361%; % Ratio GSH/GSSG (S. mansoni adult worms [1]; adult worms ex vivo, 3 hr): 37.7921%; Reduction (%) in GSH/GSSG ratio (S. mansoni adult worms [1]; adult worms ex vivo, 3 hr, relative to 0hr): 37.9219%; Reduction (%) in GSH/GSSG ratio (S. mansoni adult worms [1]; [14]): 0.3792%; viability at 5 µM (S. mansoni adult worms [2]; Schistosoma mansoni, 5 µM, compound alone, read-out: % viability, adult worms): 99.8%; viability at 10 µM (S. mansoni adult worms [2]; [15]): 72.9%; viability at 25 µM (S. mansoni adult worms [2]; Schistosoma mansoni, 25 µM, compound alone, read-out: % viability, adult worms): 63%; viability at 30 µM (S. mansoni adult worms [2]; [16]): 59%; viability at 10 µM (S. mansoni adult worms [2]; [17]): 72.9%; viability at 25 µM (S. mansoni adult worms [2]; Schistosoma mansoni, S. mansoni adult worms, Conc. 25 µM, read-out: % viability): 63% |
| C[C@@H]1[C@H]2C[C@@H](C[C@H]1NCc1nc3ccccc3n1C1CCCCCC1)C2(C)C [Compound 8] | n.i. | -0.934 | -0.91 | -4.52 | 9.42 | 13.1896 | 62.89 | 86.8104 | 0.13 | 20.8885 | 57.32 | 79.1115 | 0.21 | 20% | 22.3 ± 0.2 µM and 22.3 ± 0.20 µM | – | 30.6 | 14 | -0.111 | -1.03 | inhibition at 5 µM (Human GR; 15 minutes pre-incubation): -0.362%; inhibition at 5 µM (Human GR; 6 hours pre-incubation): -1.4%; % Ratio GSH/GSSG (S. mansoni adult worms [1]; adult worms ex vivo, 1 hr): 52.2584%; Reduction (%) in GSH/GSSG ratio (S. mansoni adult worms [1]; [12]): 14.1592%; Reduction (%) in GSH/GSSG ratio (S. mansoni adult worms [1]; [13]): 0.1416%; % Ratio GSH/GSSG (S. mansoni adult worms [1]; adult worms ex vivo, 3 hr): 52.8952%; Reduction (%) in GSH/GSSG ratio (S. mansoni adult worms [1]; [14]): 0.2338%; viability at 10 µM (S. mansoni adult worms [2]; [15]): 85.4%; viability at 30 µM (S. mansoni adult worms [2]; [16]): 30.6%; viability at 50 µM (S. mansoni adult worms [2]; Schistosoma mansoni, 50 µM, compound alone, read-out: % viability, adult worms): 14%; viability at 100 µM (S. mansoni adult worms [2]; Schistosoma mansoni, 100 µM, compound alone, read-out: % viability, adult worms): 6.59%; viability at 10 µM (S. mansoni adult worms [2]; [17]): 85.4%; viability at 100 µM (S. mansoni adult worms [2]; Schistosoma mansoni, S. mansoni adult worms, Conc. 100 µM, read-out: % viability): 6.59% |
